Measured values as given in PubChem BioAssay AID270 (DTP/NCI, 2004).
Where “and” joins values, the source holds several entries; their conditions need not be identical. Equal values may be shown once. Inconclusive results are not listed.

Test system: BDF1 mice, s.c. Lewis lung carcinoma, T/C %
Test: NCI In Vivo Anticancer Drug Screen. Data for tumor model Lewis Lung Carcinoma (subcutaneous) in B6D2F1 (BDF1) mice
In short: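 Readout: survival or tumor size, expressed as treated (T) over vehicle control (C). Transplantable tumor implanted in mice; compound given to the treated group.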

[1] = endpoint: mean tumor weight, dose: 133.0 mg/kg/injection, schedule: Q01DX011 (ip), vehicle: other, higher = larger tumour
[2] = endpoint: mean tumor weight, dose: 200.0 mg/kg/injection, schedule: Q01DX011 (ip), vehicle: other, higher = larger tumour

Cc1nnc(N)s1
T/C [1]: 80 % of control | T/C [2]: 77 % of control | T/C (endpoint: mean tumor weight, dose: 300.0 mg/kg/injection, schedule: Q01DX011 (ip), vehicle: other, higher = larger tumour): 79 % of control

C[C@]12CCC(=O)C=C1CC[C@@H]1[C@@H]2[C@@H](O)C[C@@]2(C)[C@H]1CC[C@]2(O)C(=O)COC(=O)CCC(=O)O
T/C (endpoint: mean tumor weight, dose: 87.5 mg/kg/injection, schedule: Q01DX011 (sc), vehicle: steriod suspending solution, higher = larger tumour): 76 % of control | T/C (endpoint: mean tumor weight, dose: 175.0 mg/kg/injection, schedule: Q01DX011 (sc), vehicle: steriod suspending solution, higher = larger tumour): 79 % of control | T/C (endpoint: mean tumor weight, dose: 350.0 mg/kg/injection, schedule: Q01DX011 (sc), vehicle: steriod suspending solution, higher = larger tumour): 66 % of control | T/C (endpoint: mean tumor weight, dose: 500.0 mg/kg/injection, schedule: Q01DX011 (sc), vehicle: steriod suspending solution, higher = larger tumour): 26 % of control | T/C (endpoint: mean tumor weight, dose: 700.0 mg/kg/injection, schedule: Q01DX011 (sc), vehicle: steriod suspending solution, higher = larger tumour): 72 % of control

O=S(=O)(c1ccc(NC(=S)N/N=C/c2ccccc2O)cc1)N1CCCCC1
T/C (endpoint: median survival time, dose: 12.5 mg/kg/injection, schedule: Q01DX009 (ip), vehicle: olive oil, sesame oil, peanut oil, higher = longer survival): 98 % of control | T/C (endpoint: median survival time, dose: 25.0 mg/kg/injection, schedule: Q01DX009 (ip), vehicle: olive oil, sesame oil, peanut oil, higher = longer survival): 90 % of control | T/C (endpoint: median survival time, dose: 50.0 mg/kg/injection, schedule: Q01DX009 (ip), vehicle: olive oil, sesame oil, peanut oil, higher = longer survival): 87 % of control | T/C (endpoint: median survival time, dose: 200.0 mg/kg/injection, schedule: Q01DX009 (ip), vehicle: olive oil, sesame oil, peanut oil, higher = longer survival): 91 % of control

O=C1c2ccccc2CCc2ccccc21
T/C [1]: 91 % of control | T/C [2]: 173 % of control | T/C (endpoint: mean tumor weight, dose: 450.0 mg/kg/injection, schedule: Q01DX011 (ip), vehicle: other, higher = larger tumour): 74 % of control

O=NN(CCCl)C(=O)Nc1ccc(Cl)c(Cl)c1
T/C (endpoint: median survival time, dose: 8.0 mg/kg/injection, schedule: Q01DX009 (ip), vehicle: saline with Tween-80, higher = longer survival): 116 % of control | T/C (endpoint: median survival time, dose: 16.0 mg/kg/injection, schedule: Q01DX009 (ip), vehicle: saline with Tween-80, higher = longer survival): 106 % of control

NC1(C(=O)O)CCCC1
T/C (endpoint: mean tumor weight, dose: 30.0 mg/kg/injection, schedule: Q01DX011 (ip), vehicle: saline, higher = larger tumour): 38 % of control and 61 % of control | T/C (endpoint: mean tumor weight, dose: 60.0 mg/kg/injection, schedule: Q01DX011 (ip), vehicle: saline, higher = larger tumour): 25 % of control and 30 % of control | T/C (endpoint: mean tumor weight, dose: 120.0 mg/kg/injection, schedule: Q01DX011 (ip), vehicle: saline, higher = larger tumour): 8 % of control | T/C (endpoint: median survival time, dose: 1.6 mg/kg/injection, schedule: Q01DX009 (ip), vehicle: carboxymethylcellulose (CMC), higher = longer survival): 96 % of control | T/C (endpoint: median survival time, dose: 6.25 mg/kg/injection, schedule: Q01DX009 (ip), vehicle: carboxymethylcellulose (CMC), higher = longer survival): 123 % of control

COC12C(COC(=O)NCCO)C3=C(C(=O)C(C)=C(N)C3=O)N1CC1NC12 (centres undefined)
T/C (endpoint: median survival time, dose: 3.13 mg/kg/injection, schedule: Q01DX009 (ip), vehicle: Klucel (hydroxypropylcellulose) (HPC), higher = longer survival): 94 % of control | T/C (endpoint: median survival time, dose: 6.25 mg/kg/injection, schedule: Q01DX009 (ip), vehicle: Klucel (hydroxypropylcellulose) (HPC), higher = longer survival): 92 % of control | T/C (endpoint: median survival time, dose: 25.0 mg/kg/injection, schedule: Q01DX009 (ip), vehicle: Klucel (hydroxypropylcellulose) (HPC), higher = longer survival): 94 % of control

Nc1ccc(Cl)c(N)c1
T/C (endpoint: mean tumor weight, dose: 22.0 mg/kg/injection, schedule: Q01DX011 (ip), vehicle: saline, higher = larger tumour): 115 % of control | T/C (endpoint: mean tumor weight, dose: 33.0 mg/kg/injection, schedule: Q01DX011 (ip), vehicle: saline, higher = larger tumour): 117 % of control | T/C (endpoint: mean tumor weight, dose: 50.0 mg/kg/injection, schedule: Q01DX011 (ip), vehicle: saline, higher = larger tumour): 105 % of control

O=S(=O)(O)C(Nc1ccccc1)c1ccccc1 (centres undefined)
T/C (endpoint: mean tumor weight, dose: 100.0 mg/kg/injection, schedule: Q01DX011 (ip), vehicle: water, higher = larger tumour): 51 % of control | T/C (endpoint: mean tumor weight, dose: 200.0 mg/kg/injection, schedule: Q01DX011 (ip), vehicle: water, higher = larger tumour): 71 % of control | T/C (endpoint: mean tumor weight, dose: 400.0 mg/kg/injection, schedule: Q01DX011 (ip), vehicle: water, higher = larger tumour): 27 % of control

O=C(O)C(O)C(O)C1[O][Sb][O]C1CO (centres undefined)
T/C (endpoint: median survival time, dose: 50.0 mg/kg/injection, schedule: Q01DX009 (ip), vehicle: saline, higher = longer survival): 104 % of control | T/C (endpoint: median survival time, dose: 100.0 mg/kg/injection, schedule: Q01DX009 (ip), vehicle: saline, higher = longer survival): 102 % of control

O=c1[nH]c(=O)n(C2CC(O)C(CO)O2)cc1Br (centres undefined)
T/C (endpoint: mean tumor weight, dose: 50.0 mg/kg/injection, schedule: Q01DX011 (ip), vehicle: carboxymethylcellulose (CMC), higher = larger tumour): 67 % of control | T/C (endpoint: mean tumor weight, dose: 100.0 mg/kg/injection, schedule: Q01DX011 (ip), vehicle: carboxymethylcellulose (CMC), higher = larger tumour): 88 % of control | T/C (endpoint: mean tumor weight, dose: 200.0 mg/kg/injection, schedule: Q01DX011 (ip), vehicle: carboxymethylcellulose (CMC), higher = larger tumour): 41 % of control | T/C (endpoint: mean tumor weight, dose: 400.0 mg/kg/injection, schedule: Q01DX011 (ip), vehicle: carboxymethylcellulose (CMC), higher = larger tumour): 53 % of control

C=C(C)C(=O)O[C@H]1[C@H]2[C@H](OC(=O)[C@H]2C)[C@H](O)[C@@H](C)[C@@H]2C=CC(=O)[C@]21C
T/C (endpoint: median survival time, dose: 15.0 mg/kg/injection, schedule: Q01DX009 (ip), vehicle: saline, higher = longer survival): 113 % of control | T/C (endpoint: median survival time, dose: 30.0 mg/kg/injection, schedule: Q01DX009 (ip), vehicle: saline, higher = longer survival): 104 % of control
